Test results taken from patent US7531545B2, “2-amino-3,4-dihydro-pyrido[3,4-d]pyrimidine derivatives useful as inhibitors of β-secretase (BACE)” (Janssen Pharmaceutica, N.V., priority 2005, dated 2009).

Target: human BACE-1 (Homo sapiens, UniProt P56817)
Test: CEREP BACE Inhibition Assay
Type: biochemical
Conditions: recombinant enzyme; for inhibition at 1 µM: percent inhibition of the control activity, read-out: % Inhibition @ 1.0 μM; for IC50: read-out: IC50
Procedure, shortened: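 Recombinant human BACE-1 (0.25 μg) was assayed in 0.09 M sodium acetate pH 4.5, with activity followed fluorimetrically as formation of Mca-S-E-V-N-L[…] from peptide substrate. Compound autofluorescence was checked at the detection wavelengths. Basal signal was taken from wells without substrate.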

Chain of human BACE-1 (P56817 46-501): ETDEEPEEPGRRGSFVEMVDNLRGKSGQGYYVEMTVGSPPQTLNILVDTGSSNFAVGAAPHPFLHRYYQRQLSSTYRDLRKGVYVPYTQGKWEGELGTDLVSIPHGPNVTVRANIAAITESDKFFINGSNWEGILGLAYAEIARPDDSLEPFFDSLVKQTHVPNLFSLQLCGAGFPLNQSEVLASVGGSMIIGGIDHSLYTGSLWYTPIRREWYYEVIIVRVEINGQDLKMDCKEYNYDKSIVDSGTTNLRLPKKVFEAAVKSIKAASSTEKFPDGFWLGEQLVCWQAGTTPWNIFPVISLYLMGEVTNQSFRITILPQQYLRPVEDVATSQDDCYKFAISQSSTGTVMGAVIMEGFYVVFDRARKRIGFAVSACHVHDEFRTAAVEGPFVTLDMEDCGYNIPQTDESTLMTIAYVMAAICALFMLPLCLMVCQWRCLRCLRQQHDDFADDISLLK

Row | inhibition at 1 µM | IC50 | SMILES
1 | 48% | 830 nM | CN(C(=O)CCC(C1CCCCC1)N1Cc2cc(Oc3ccccc3)ncc2N=C1N)C1CCS(=O)(=O)C1 (stereo not shown) [Compound 170]
2 | 77% | 270 nM | CN(CCO)C(=O)CC[C@@H](C1CCCCC1)N1Cc2cc(Oc3ccccc3)ncc2N=C1N [Compound 171]
3 | 99% | 170 nM | Cn1c(CN(CCC(C)(C)C)C(=O)CC[C@@H](C2CCCCC2)N2Cc3cc(Oc4ccccc4)ncc3N=C2N)nc(Cl)c1Cl [Compound 172]
4 | 92% | 130 nM | CCOCCCNC(=O)CC[C@@H](C1CCCCC1)N1Cc2cc(Oc3ccccc3)ncc2N=C1N [Compound 173]
5 | 100% | 86 nM | CC(C)(C)CCN(CCN1CCOCC1)C(=O)CC[C@@H](C1CCCCC1)N1Cc2cc(Oc3ccccc3)ncc2N=C1N [Compound 174]
6 | 93% | 97 nM | CC(C)[C@H](CCC(=O)N[C@H](C)CO)N1Cc2cc(Oc3ccccc3)ncc2N=C1N [Compound 175]
7 | 101% | 140 nM | NC1=Nc2cnc(Oc3ccccc3)cc2CN1[C@@H](CCC(=O)N(CCOCCOCCOCCO)C1CCCCC1)C1CCCCC1 [Compound 176, 4-(2-Amino-6-phenoxy-4H-pyrido[3,4-d]pyrimidin-3-yl)-4-(S),N-dicyclohexyl-N-(2-{2-[2-(2-hydroxy-ethoxy)-ethoxy]-ethoxy}-ethyl)-butyramide]
8 | 80% | 320 nM | C[C@@H](O)[C@H](CCC(=O)N(C)C1CCCCC1)N1Cc2cc(Oc3ccccc3)ncc2N=C1N [Compound 177]
9 | 100% | 81 nM | CC(C)(CO)CNC(=O)CC[C@@H](C1CCCCC1)N1Cc2cc(Oc3ccccc3)ncc2N=C1N [Compound 179]
10 | 99% | 91 nM | CC(C)(CO)NC(=O)CC[C@@H](C1CCCCC1)N1Cc2cc(Oc3ccccc3)ncc2N=C1N [Compound 180]
11 | 96% | 85 nM | CC(C)(C)OCCNC(=O)CC[C@@H](C1CCCCC1)N1Cc2cc(Oc3ccccc3)ncc2N=C1N [Compound 181]
12 | 100% | 89 nM | CC(C)(C)CCN(CCC[C@@H](C1CCCCC1)N1Cc2cc(Oc3ccccc3)ncc2N=C1N)CCN1CCOCC1 [Compound 182]
13 | 70% | 580 nM | C[C@H](CO)N(C)C(=O)CC[C@@H](C1CCCCC1)N1Cc2cc(Oc3ccccc3)ncc2N=C1N [Compound 183]
14 | 45% | 2300 nM | C[C@H](CO)N(C)CCC[C@@H](C1CCCCC1)N1Cc2cc(Oc3ccccc3)ncc2N=C1N [Compound 184]
15 | 85% | 270 nM | C[C@@H](OCc1ccccc1)[C@H](CCC(=O)N(CCC(C)(C)C)Cc1ccncc1)N1Cc2cc(Oc3ccccc3)ncc2N=C1N [Compound 185, 4-(S)-(2-Amino-6-phenoxy-4H-pyrido[3,4-d]pyrimidin-3-yl)-5-(R)-benzyloxy-hexanoic acid (3,3-dimethyl-butyl)-pyridin-4-ylmethyl-amide]
16 | 81% | 190 nM | C[C@@H](O)[C@H](CCC(=O)NCC(C)(C)C)N1Cc2cc(Oc3ccccc3)ncc2N=C1N [Compound 186, 4-(S)-(2-Amino-6-phenoxy-4H-pyrido[3,4-d]pyrimidin-3-yl)-5-(R)-hydroxy-hexanoic acid (2,2-dimethyl-propyl)-amide]
17 | 99% | 44 nM | CN(CCC[C@@H](C1CCCCC1)N1Cc2cc(Oc3ccccc3)ncc2N=C1N)C1CCCCC1 [Compound 187]
18 | 99% | 140 nM | CC(C)CN(CCN1CCOCC1)C(=O)CC[C@@H](C1CCCCC1)N1Cc2cc(Oc3ccccc3)ncc2N=C1N [Compound 189]

Row | SMILES | inhibition at 1 µM | IC50
19 | CC(C)(C)OC[C@H](CN)NC(=O)CC[C@@H](C1CCCCC1)N1Cc2cc(Oc3ccccc3)ncc2N=C1N [Compound 168, N-(2-Amino-1-tert-butoxymethyl-ethyl)-4-(2-amino-6-phenoxy-4H-pyrido[3,4-d]pyrimidin-3-yl)-4-cyclohexyl-butyramide] | 101% | –
